Experimental data reported in the CheMixHub viscosity set.
± gives the uncertainty stated by the source.

Assay: xn = mol fraction of the nth substance listed

Nc1cccc(Cl)c1 + CCCCCCCCCCO
viscosity [mPa·s], 101 kPa
Details	x1 = 0.1699	x1 = 0.3153	x1 = 0.4411	x1 = 0.5511	x1 = 0.6481	x1 = 0.7342	x1 = 0.8112	x1 = 0.8805	x1 = 0.9431
303.15 K	8.772 ± 0.26	7.947 ± 0.24	7.247 ± 0.22	6.641 ± 0.21	6.113 ± 0.19	5.648 ± 0.18	5.238 ± 0.17	4.871 ± 0.16	4.546 ± 0.15
308.15 K	7.358 ± 0.22	6.71 ± 0.21	6.16 ± 0.19	5.687 ± 0.18	5.274 ± 0.17	4.912 ± 0.16	4.593 ± 0.15	4.31 ± 0.14	4.061 ± 0.14
313.15 K	6.213 ± 0.2	5.693 ± 0.18	5.254 ± 0.17	4.878 ± 0.16	4.549 ± 0.15	4.262 ± 0.14	4.01 ± 0.13	3.788 ± 0.13	3.596 ± 0.12
318.15 K	5.338 ± 0.17	4.899 ± 0.16	4.532 ± 0.15	4.217 ± 0.14	3.943 ± 0.13	3.704 ± 0.12	3.494 ± 0.12	3.311 ± 0.11	3.153 ± 0.11

CCC(=O)O + c1ccncc1
298.15 K, 101 kPa
Details	viscosity [mPa·s]
x1 = 0.0999	1 ± 0.026
x1 = 0.1959	1.135 ± 0.027
x1 = 0.2826	1.311 ± 0.029
x1 = 0.3927	1.587 ± 0.031
x1 = 0.5016	1.943 ± 0.033
x1 = 0.6401	2.388 ± 0.035
x1 = 0.7118	2.48 ± 0.033
x1 = 0.7972	2.353 ± 0.029
x1 = 0.8994	1.755 ± 0.02

ClCCCCCl + CC(C)(C)O
viscosity [mPa·s], 101 kPa
Details	x1 = 0.1005	x1 = 0.2009	x1 = 0.2964	x1 = 0.435	x1 = 0.5026	x1 = 0.602	x1 = 0.7061	x1 = 0.8038	x1 = 0.9014
298.15 K	2.618 ± 0.025	1.826 ± 0.018	1.482 ± 0.014	1.315 ± 0.012	1.257 ± 0.012	1.202 ± 0.011	1.18 ± 0.011	1.182 ± 0.011	1.208 ± 0.011
313.15 K	1.495 ± 0.019	1.18 ± 0.013	1.035 ± 0.01	0.9459 ± 0.0096	0.9313 ± 0.0093	0.9139 ± 0.009	0.916 ± 0.009	0.9291 ± 0.0092	0.9613 ± 0.0095

CCCOC(=O)CC + c1ccccc1
298.15 K, 101.33 kPa
Details	viscosity [mPa·s]
x1 = 0.1478	0.583 ± 0.01
x1 = 0.2542	0.583 ± 0.01
x1 = 0.3452	0.586 ± 0.01
x1 = 0.4049	0.588 ± 0.01
x1 = 0.616	0.604 ± 0.011
x1 = 0.7421	0.616 ± 0.011
x1 = 0.8096	0.622 ± 0.011
x1 = 0.878	0.63 ± 0.011
x1 = 0.9369	0.635 ± 0.011

CC(=O)CCC(=O)O + C[N+](C)(C)CCO.[Cl-]
viscosity [mPa·s]
Details	293.15 K	298.15 K	303.15 K	308.15 K	313.15 K	318.15 K	323.15 K
100 kPa, x2 = 0.33	320.6 ± 15	226.8 ± 10	164.5 ± 7.1	122.5 ± 5.2	93.62 ± 3.9	72.54 ± 3	57.48 ± 2.3
101 kPa, x1 = 0.75	134.2 ± 5.9	–	79.14 ± 3.4	–	47.76 ± 2	–	31.29 ± 1.3
101 kPa, x2 = 0.25	–	132.9 ± 5.8	–	–	–	46.9 ± 2	–
101 kPa, x2 = 0.333	–	207.8 ± 9.4	–	–	–	68 ± 3	–

O=[N+]([O-])[O-].[Li+] + O
100 kPa
Details	viscosity [mPa·s]
298.11 K, x1 = 0.0088	0.9305 ± 0.028
298.18 K, x1 = 0.00475	0.9105 ± 0.028
298.35 K, x1 = 0.01898	0.9846 ± 0.03
298.45 K, x1 = 0.02699	1.04 ± 0.032
306.75 K, x1 = 0.02699	0.8753 ± 0.027
307.65 K, x1 = 0.01898	0.8088 ± 0.025
307.85 K, x1 = 0.00475	0.746 ± 0.023
308.95 K, x1 = 0.0088	0.7411 ± 0.023

Nc1cccc(Cl)c1 + Cc1ccccc1Cl
viscosity [mPa·s], 100 kPa
Details	x1 = 0.0744	x1 = 0.1659	x1 = 0.2575	x1 = 0.3522	x1 = 0.4708	x1 = 0.5714	x1 = 0.6762	x1 = 0.7838	x1 = 0.8902
303.15 K	1.146 ± 0.051	1.462 ± 0.051	1.777 ± 0.051	2.1 ± 0.052	2.502 ± 0.053	2.84 ± 0.054	3.191 ± 0.055	3.548 ± 0.056	3.898 ± 0.057
308.15 K	1.044 ± 0.051	1.329 ± 0.051	1.614 ± 0.051	1.906 ± 0.052	2.267 ± 0.053	2.573 ± 0.053	2.888 ± 0.054	3.209 ± 0.055	3.523 ± 0.056
313.15 K	0.9401 ± 0.051	1.196 ± 0.051	1.45 ± 0.051	1.71 ± 0.052	2.033 ± 0.052	2.304 ± 0.053	2.585 ± 0.053	2.871 ± 0.054	3.149 ± 0.055
318.15 K	0.8312 ± 0.051	1.059 ± 0.051	1.283 ± 0.051	1.512 ± 0.051	1.797 ± 0.052	2.036 ± 0.053	2.283 ± 0.053	2.534 ± 0.054	2.778 ± 0.055

CCC(=O)O + C1CCOC1
298.15 K, 101 kPa
Details	viscosity [mPa·s]
x2 = 0.1025	1.067 ± 0.009
x2 = 0.2043	1.069 ± 0.009
x2 = 0.3057	1.033 ± 0.0087
x2 = 0.4065	0.9675 ± 0.0082
x2 = 0.5067	0.8745 ± 0.0074
x2 = 0.6065	0.7835 ± 0.0067
x2 = 0.7056	0.6858 ± 0.0059
x2 = 0.8043	0.5947 ± 0.0052
x2 = 0.9024	0.5179 ± 0.0045
